Values quoted from earlier work in US7592331B2, “Macrocyclic factor VIIa inhibitors useful as anticoagulants” (Bristol-Myers Squibb Company, priority 2005, dated 2009).

How the values were obtained:
[1] = tested on: patients undergoing total knee replacement
[2] = tested on: patients undergoing coronary angioplasty
[3] = tested on: patients with acute coronary syndromes

In the case of “recombinant nematode anticoagulant protein c2 [rNAPc2]”, the deep vein thrombosis [1] is listed as “prevents deep vein thrombosis”, the systemic thrombin generation [2] is listed as “reduces systemic thrombin generation” and the “magnitude and duration of ischemic events” value [3] is listed as “reduces magnitude and duration of ischemic events”.
